# Results: the SangsterLogP compilation
row,SMILES,logP
1,Oc1ccc(Oc2ccccc2)cc1,3.92
2,CO/C=C(/C(=O)OC)c1ccccc1Oc1cc(Oc2ccccc2C#N)ncn1,2.97
3,CCCCOCCOCCOCc1cc2c(cc1CCC)OCO2,4.39
4,CC(C)N(C(=O)COc1nnc(C(F)(F)F)s1)c1ccc(F)cc1,3.19
5,CC(C)(C)c1ccc(CCOc2ncnc3ccccc23)cc1,4.91
6,N#Cc1c[nH]cc1-c1cccc(Cl)c1Cl,3.78
7,COc1ccc(-c2ccccc2)cc1NNC(=O)OC(C)C,3.8
8,CCCN(CCC)c1c([N+](=O)[O-])cc(C(F)(F)F)cc1[N+](=O)[O-],4.98
9,CN(C)CCC=C1c2ccccc2COc2ccccc21,3.75
10,C=CCc1ccccc1OC[C@@H](O)CNC(C)C,2.63
11,CON=C1C[C@]2(C[C@@H]3C[C@@H](C/C=C(\C)C[C@@H](C)C=C/C=C4\CO[C@@H]5[C@H](O)C(C)=C[C@@H](C(=O)O3)[C@]45O)O2)O[C@H](/C(C)=C/C(C)C)[C@H]1C,4.99
12,CCOCn1c(-c2ccc(Cl)cc2)c(C#N)c(Br)c1C(F)(F)F,4.61
13,CC(C)C(C(=O)OC(C#N)c1cccc(Oc2ccccc2)c1)c1ccc(Cl)cc1 (stereo unspecified),5.71
14,COP(=S)(OC)SCC(=O)N(c1ccc(Cl)cc1)C(C)C,3.8
15,CC1=C(C(=O)Nc2ccccc2)S(=O)(=O)CCO1,1.13
16,C[C@H]1O[C@@H](O[C@H]2[C@@H](O)C[C@H](O[C@H]3[C@@H](O)C[C@H](O[C@H]4CC[C@@]5(C)[C@H](CC[C@@H]6[C@@H]5CC[C@]5(C)[C@@H](C7=CC(=O)OC7)CC[C@]65O)C4)O[C@@H]3C)O[C@@H]2C)C[C@H](O)[C@@H]1O,3.42
